The target of this test is T1, L-CPT1 (Homo sapiens, UniProt P50416).
T1 construct: made in house; host or cells: Pichia pastoris strain X-33
T1 sequence (P50416 1-773): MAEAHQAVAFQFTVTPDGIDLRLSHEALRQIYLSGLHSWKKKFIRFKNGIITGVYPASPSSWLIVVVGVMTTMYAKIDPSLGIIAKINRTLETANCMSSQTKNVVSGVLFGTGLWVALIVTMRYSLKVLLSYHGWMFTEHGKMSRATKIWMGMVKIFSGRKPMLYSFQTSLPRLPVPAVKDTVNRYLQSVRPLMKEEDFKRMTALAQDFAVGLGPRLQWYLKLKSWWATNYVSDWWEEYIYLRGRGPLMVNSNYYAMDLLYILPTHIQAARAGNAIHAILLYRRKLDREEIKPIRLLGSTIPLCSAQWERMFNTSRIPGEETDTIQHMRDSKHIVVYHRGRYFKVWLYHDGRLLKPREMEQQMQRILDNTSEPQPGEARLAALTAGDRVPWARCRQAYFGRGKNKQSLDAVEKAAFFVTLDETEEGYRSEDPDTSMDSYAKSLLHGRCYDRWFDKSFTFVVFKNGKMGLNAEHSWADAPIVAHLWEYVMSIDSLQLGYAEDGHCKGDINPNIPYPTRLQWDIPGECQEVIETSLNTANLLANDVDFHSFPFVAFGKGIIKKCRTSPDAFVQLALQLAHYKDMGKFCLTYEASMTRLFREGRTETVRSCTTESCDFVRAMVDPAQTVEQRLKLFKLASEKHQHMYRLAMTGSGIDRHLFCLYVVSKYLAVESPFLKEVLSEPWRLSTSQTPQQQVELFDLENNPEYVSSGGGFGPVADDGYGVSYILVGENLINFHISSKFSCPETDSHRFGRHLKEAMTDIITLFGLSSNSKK
In words: L-CPT1 inhibition, spectrophotometric CPT activity assay with DTNB (Ellman's reagent). The format is biochemical. Particulars: human liver CPT1 expressed in P. pastoris, cell extracts; carnitine 500 μM, palmitoyl-CoA 80 μM, DTNB 300 μM, pH 7.4. How it is done: The following tests were carried out in order to determine the activity of the compounds of the present invention. Background information on the performed assays can be found in: Jackson et al., 1999, Biochem. J. 341, 483-489 and Jackson et al., 2000, J. Biol. Chem. 275, 19560-19566.
Human liver and muscle CPT1 cDNAs and rat CPT2 cDNA were subcloned in pGAPZB or pGAPZA, respectively. These plasmids were used to transform P. pastoris strain X-33 via electroporation after the preparation of electrocompetent cells. High copy number clones were selected where necessary using 0.5 or 1 mg/ml Zeocin. Cultures for activity measurements were induced for 16 h in YPD medium (1% yeast extract, 2% peptone, 2% glucose). Crude cell extracts were prepared by disrupting the cells with glass beads or French Press, depending on fermenter sizes. After centrifugation, the cell-free extracts were resuspended in cell breaking buffer (50 mM Tris, pH7.4, 100 mM KCl, 1 mM EDTA) in the presence of a protease inhibitor cocktail, before aliquoting and freezing at −20° C.
CPT activity was measured using a spectrophotometric assay using 5,5′-dithio-bis-(2-nitrobenzoic acid) (DTNB) also called Ellman's reagent. The HS-CoA released on the formation of acylcarnitine from carnitine (500 μM) and palmitoyl-CoA (80 μM) reduced DTNB (300 μM) forming 5-mercapto-(2-nitrobenzoic acid) which absorbed at 410 nm with a molar coefficient extinction of 13600 M^−1·cm^−1. The assay buffer contained 120 mM KCl, 25 mM Tris, pH 7.4, 1 mM EDTA. This assay was used for the identification of selective inhibitors of the liver CPT1 isoform versus the muscle CPT1 and CPT2 isoforms.
A general note: In Ellman's method for cholinesterases, released thiocholine reacts with DTNB.

Results on three molecules are retold here after US7713996B2, “Indolyl derivatives which are L-CPT1 inhibitors” (Hoffmann-La Roche Inc., priority 2005, dated 2010).

`COc1ccc(Cl)cc1S(=O)(=O)N1CCc2ccc(C(=O)Nc3ccc(C(=O)O)c(F)c3)cc21` [Example 12, 4-{[1-(5-Chloro-2-methoxy-benzenesulfonyl)-2,3-dihydro-1H-indole-6-carbonyl]-amino}-2-fluoro-benzoic acid] showed a half-maximal inhibitory concentration (IC50) of 72.2 nM.

The molecule `COc1ccc(Cl)cc1S(=O)(=O)N1CCc2ccc(C(=O)Nc3ccc(C(=O)O)cc3)cc21` [Example 31, 4-{[1-(5-Chloro-2-methoxy-benzenesulfonyl)-2,3-dihydro-1H-indole-6-carbonyl]-amino}-benzoic acid] had an IC50 of 20.6 nM.

For the molecule `O=C(Nc1ccc(C(=O)O)c(Cl)c1)c1ccc2c(c1)N(S(=O)(=O)c1cccc(Cl)c1)CC2` [Example 1, 2-Chloro-4-{[1-(3-chloro-benzenesulfonyl)-2,3-dihydro-1H-indole-6-carbonyl]-amino}-benzoic acid], the IC50 amounted to 160 nM.

By IC50 is commonly meant the concentration that inhibits the measured activity by half. A higher IC50 goes with lower potency.
